# Values joined by “and” are separate entries in the source; they are usually repeats but may differ in a detail not shown here. Identical values can stand only once.
# Legend:
# [1] = test system: transgenic P. berghei line 676m1cl1 (PbGFP-Luccon), ANKA strain; assay: In vivo efficacy in P. berghei infected mice (luciferase activity); set-up: species or system Plasmodium berghei in Swiss Webster female mice; conditions: for Parasitaemia (Luminescence arbitrary units), Average ± SD: 4 days from 48 h post-infection; for in vivo activity (in words): strasseriolide D 22 mg/kg i.p. (p < 0.01 vs. vehicle), strasseriolide C 50 mg/kg i.p. (not statistically significant); for parasitaemia level lower compared to controls treated with vehicle: strasseriolide D 22 mg/kg i.p., strasseriolide C 50 mg/kg i.p., 4 days
# Experimental: In vivo efficacy experiments were performed at the Anti-infectives Screening Core Services facility of the New York University School of Medicine. The transgenic P. berghei line 676m1cl1 parasite (PbGFP-Luccon) expressing the fusion GFP (mutant 3) and firefly luciferase (LucIAV) proteins generated in the reference clone of ANKA strain cl15cy1 was used. Swiss Webster female mice were infected with transgenic P. berghei line 676m1cl1 (PbGFP-Luccon) ANKA-infected 10³ red blood cells. Treatment was then started 48 h post-parasite infection by i.p. dosage of 22 mg/kg of strasseriolide D and 50 mg/kg of strasseriolide C. Vehicle only (PBS 2% methylcellulose, 0.5% Tween 80) and 20 mg/kg chloroquine were used as negative and positive controls. The infected mice were treated for four days, after which luciferase activity of the parasites was quantified 5 to 10 min after i.p. injection of 150 mg/kg D-Luciferin Potassium-salt (Goldbio) dissolved in PBS using an IVIS® Lumina II imager on the fifth day.
# The Genedata Screener online application (Genedata AG, Basel, Switzerland) was used to compute IC50 values. The Smart Fit strategy with Hill model was selected as the choice for curve fitting. Where applicable, data are presented as mean ± standard deviation (SD). In Fig. 3, the significant differences between the vehicle controls and test compounds were calculated by the Student’s t test.
# [2] = Quantification of compounds in mice plasma by LC-MS-MS and PK parameters after i.v. injection; format: in vivo; conditions: mouse, in vivo, iv, 25 mg/kg
# Experimental: (§1) Three Balb/C mice (6–8 weeks old) were intravenously injected with 25 mg/kg of strasseriolide D dissolved in 200 µL of vehicle (0.5%HPMC, 0.5% Tween 80 and 0.5% Benzyl alcohol in water). Blood samples were collected by pricking the […] on the leg of each mouse at time points 1.5 (T 1.5 h), 5 (T 5 h) and 24 h (T 24 h). From the harvested blood, 50 µL plasma were prepared for all the samples and stored at -80 °C until needed. A previously developed LC–MS–MS method (see supporting information) was used to determine the plasma concentration of strasseriolide D as described below.
# Ten millimolar (10 mM) DMSO stocks of strasseriolide D (the test compound) and strasseriolide A (used as internal standard,) were prepared. From the strasseriolide D stock, a 59.7 µM (27,000 ppb) working concentration was made in DMSO and an aliquot of this was serially diluted (½) in reconstitution solution (1:1 of acetonitrile: H2O with 0.1% formic acid) to create a six-point calibration curve in triplicate. Three different quality control (QC) concentrations of strasseriolide D at 59.7, 0.74, and 0.25 µM (i.e. 27,000 ppb, 333 ppb and 111 ppb) were also prepared in duplicate. From the strasseriolide A (internal standard) stock, a 6.2 µM (2700 ppb) working concentration was prepared in DMSO.
# Blank mouse plasma (prepared from non-injected mouse) was retrieved from the freezer (− 80 °C) and kept on ice to thaw. The sample was vortexed adequately and 15 µL aliquots transferred into 0.7 mL Eppendorf tubes after which 35 µL of Milli-Q water were added and vortexed. Triplicate sets of the diluted plasma were then respectively spiked with 2 uL of each concentration of the calibration curves of strasseriolide D. Another triplicate set of the diluted plasma was spiked with 2 µL of each concentration of the standard QC solutions. All the above samples were also spiked with 2 µL of strasseriolide A (the internal standard)). To serve as blank samples, a fresh triplicate set of diluted plasma were spiked with 4 µL of DMSO. Non-matrix samples were also prepared by spiking 100 µL aliquots of reconstitution solution with 2 µL of the standard QC solutions and 2 µL of internal standard.
# Fifteen microlitres (15 µL) plasma from the various time points of the strasseriolide D-injected mice, were respectively transferred into 0.7 mL Eppendorf tubes. To each sample, 37 µL of Milli-Q water were added, vortexed and spiked with 2 µL of strasseriolide A (internal standard). Two hundred microlitres (200 µL) of ice-cold acetonitrile were added to all of the matrix (plasma-containing) samples and centrifuged at 13,300 rpm for 15 min at 4 °C. Subsequently, 180 µL aliquots were carefully transferred (without disturbing the protein precipitate) from each tube into clean HPLC vials and evaporated to dryness in an EZ2 Genevac at room temperature. The dried samples were then reconstituted in 40 µL of reconstitution solution by vortexing. The samples were placed in an auto-sampler drawer for LC–MS–MS analysis and quantification of strasseriolide D (the test compound) in mice plasma.
# (§2) Similar sample preparation and LC–MS–MS analysis were respectively performed for mice intravenously injected with strasseriolides A and C as test compounds and mice blood samples collected at 30 min (T 30 M), 2 h (T 2 h), 6 h (T 6 h) and 24 h (T 24 h). […] For strasseriolides A, B and C as test compounds; strasseriolides C, D and B were respectively used as internal standards. After LC–MS–MS analysis, the plasma concentration of compound vs. time data was determined for each strasseriolide.
# 116 Table S2. QC table used to calculate the precision and accuracy of the method.
# Compound Expected No. Experimental STD % %
# conc. in values mean conc. deviation CV Accuracy
# 118 (5) The mean recovery rate for the test compound (strasseriolide B) – this was calculated
# 119 to be 29 % by comparing the plasma QC peak area ratios at the established retention time […]
# mice = assay: In vivo toxicity in mice after i.v. injection; conditions: mouse, in vivo, iv, 25 mg/kg
# Experimental: as §1, §2
# Animals were observed individually at 15, 30 and 60 min after dosing and periodically during the first 24 h for any clinical signs of toxicity or mortality. The toxicity evaluation was carried out by observing behaviour parameters, including the Grimace scale parameters. The mice were sacrificed, and the main organs were examined by visual inspection during autopsy.
# [3] = Balb/C, Calc. Conc. in plasma, individual mice
# [4] = Balb/C, T1/2 (apparent terminal elimination half-life)
Structure (SMILES),in vivo activity (in words) [1],parasitaemia level lower compared to controls treated with vehicle [1] [%],AUC 0-t/0-inf_obs ([2]; Balb/C),AUC(0-inf) ([2]; Balb/C),C0 ([2]; Balb/C),Clast_obs/Cmax ([2]; Balb/C),Cmax ([2]; Balb/C),MRT ([2]; Balb/C) [h],MRT inf ([2]; Balb/C) [h],Tmax ([2]; Balb/C) [h],Vss_obs ([2]; Balb/C),Vz_obs (plasma distribution volume) ([2]; Balb/C) [L/kg],k el ([2]; Balb/C) [s⁻¹],"AUC(0-t) ([2]; Balb/C, AUC 0-t)","AUC(0-t) ([2]; Balb/C, AUC0−t) [µM·h]","concentration at 24 h ([2]; Balb/C, Ave. Conc. in plasma) [nM]","concentration at 24 h [2, 3]","concentration at 24 h ([2]; Balb/C, Plasma Conc. @T24 h) [nM]","half-life [2, 4] [h]","half-life ([2]; Balb/C, t1/2) [h]",also measured
"C/C1=C\[C@H](C)[C@@H](O)C[C@@H](O)/C(C)=C/[C@H](C)C[C@@H](C)CC[C@@H]([C@@H](C)C(=O)O)OC(=O)[C@@H](C)C1 [Strasseriolide D, strasseriolide D]",significantly lowered parasitaemia in vivo,70,0.8996,5050 ng·h/mL and 11.2 µM·h,929 ng/mL and 2.06 µM,0.08582,564 ng/mL and 1.25 µM,8,8.02,1.5,0.03969 (mg/kg)/(ng/ml),51.9,2.65e-05,10.1 µM·h and 4550 ng·h/mL,10.1,107,49.2 ng/mL and 109 nM,107 ± 5,7.3,7.27,"Parasitaemia (Luminescence arbitrary units), Average ± SD ([1]; Table S8/Fig. 3B experiment: strasseriolide D 22 mg/kg i.p., chloroquine 20 mg/kg, read day 5, five replicates): 1.25 × 10^5 ± 1.04 × 10^5 Luminescence arbitrary units; Parasitaemia (Luminescence arbitrary units), single replicates ([1]; Table S8 experiment: strasseriolide D 22 mg/kg i.p., chloroquine 20 mg/kg, individual mice): 2.56 × 10^4 Luminescence arbitrary units and 6.93 × 10^3 Luminescence arbitrary units; concentration at 1.5 h ([2]; Balb/C, Ave. Conc. in plasma): 1250 nM; concentration at 5 h ([2]; Balb/C, Ave. Conc. in plasma): 389 nM; concentration at 5 h [2, 3]: 168 ng/mL and 431 nM; Cl_obs [2]: 0.004946 (mg/kg)/(ng/ml)/h; in vivo toxicity / mortality in mice (mice; Balb/C, 24 h): survived until 24 h post-i.v. injection; in vivo toxicity / mortality in mice (mice): non-toxic"
"C/C1=C\[C@H](C)C(=O)C[C@@H](O)/C(C)=C/[C@H](C)C[C@@H](C)CC[C@@H]([C@@H](C)C(=O)O)OC(=O)[C@@H](C)C1 [Strasseriolide C, strasseriolide C]",moderate in vivo activity,30,0.9595,359 ng·h/mL and 0.798 µM·h,203 ng/mL and 452 nM,0.01432,111 ng/mL and 246 nM,4.7,4.71,0.5,0.3281 (mg/kg)/(ng/ml),636.8,3.04e-05,345 ng·h/mL and 0.766 µM·h,0.766,3.54,2.04 ng/mL and 4.53 nM,3.5 ± 0.9,6.3,6.34,"Parasitaemia (Luminescence arbitrary units), Average ± SD ([1]; Table S7/Fig. 3A experiment: strasseriolide C 50 mg/kg i.p., chloroquine 20 mg/kg, read day 5, four replicates): 3.66 × 10^6 ± 2.23 × 10^6 Luminescence arbitrary units; concentration at 0.5 h ([2]; Balb/C, Ave. Conc. in plasma): 246 nM; concentration at 2 h ([2]; Balb/C, Ave. Conc. in plasma): 40 nM; concentration at 6 h ([2]; Balb/C, Ave. Conc. in plasma): 24 nM; concentration at 0.5 h [2, 3]: 122 ng/mL and 271 nM; concentration at 2 h [2, 3]: 20.7 ng/mL and 46 nM; concentration at 6 h [2, 3]: 11.4 ng/mL and 23.1 nM; Cl_obs [2]: 0.06959 (mg/kg)/(ng/ml)/h; in vivo toxicity / mortality in mice (mice; Balb/C, 24 h): survived until 24 h post-i.v. injection; in vivo toxicity / mortality in mice (mice): non-toxic"

# Reference: PMC8647499, “Preclinical evaluation of strasseriolides A–D, potent antiplasmodial macrolides isolated from Strasseria geniculata CF-247,251” (Malaria Journal, 2021)
